Assay results from patent EP0243336A1, “Pharmaceutical compositions for the treatment of intermittent claudication” (U C B, S.A., priority 1986, dated 1987).

Experiments:
[1] = tested on: patients présentant une artériopathie oblitérante périphérique aux stades cliniques IIa et IIb; test: Clinical trial: pain-free walking distance on treadmill before and after six weeks of isovolemic then hypervolemic hemodilution; type: in vivo
Excerpt: Cet exemple décrit un essai clinique effectué sur deux groupes A et B de 9 patients présentant une artériopathie oblitérante périphérique aux stades cliniques IIa et IIb. Tous ces patients présentaient des oblitérations d'un ou plusieurs jours ou des microangiopathies des membres inférieurs. En outre, la fluidité du sang de ces patients était trés limitée.
Les patients du groupe A (âge moyen: 60 ans) reçoivent un traitement combiné par dilution isovolémique et dilution hypervolémique au moyen de HES 200 (poids moléculaire 200.000) et de piracétam.
A cet effet, en 4 à 5 séances, on prélève chaque fois 500 ml de sang que l'on remplace par une perfusion isovolémique de 500 ml d'une solution aqueuse stérile à 10% de HES 200 contenant 12 g de piracétam. Le rapport en poids entre le HES 200 et le piracétam est donc de 4,1 : 1.
Entre chaque séance de perfusion isovolémique s'écoule un intervalle de 2 à 3 jours pendant lequel les patients reçoivent 12 g de piracétam par jour sous forme d'une suspension buvable.
Ensuite, on administre trois fois par semaine, en perfusion hypervolémique, 500 ml de la solution à 10% de HES 200 contenant 12 g de piracétam.
Le groupe B constitue le groupe témoin et les patients de ce groupe (âge moyen: 60 ans) reçoivent le même traitement, mais sans addition de piracétam.

[2] = tested on: patients présentant une artériopathie oblitérante périphérique aux stades cliniques IIa et IIb; test: Clinical trial: hemorheological parameters (blood fluidity, erythrocyte aggregation); type: in vivo; conditions: after treatment; piracétam given together with HES 200
Excerpt: Parallèlement au traitement, on a déterminé avant et après celui-ci la fluidité du sang des patients étudiés.
Cet exemple décrit un essai clinique effectué sur deux groupes A et B de 9 patients présentant une artériopathie oblitérante périphérique aux stades cliniques IIa et IIb. […] En outre, la fluidité du sang de ces patients était trés limitée.
Dans les deux groupes de patients, on a également suivi l'évolution de divers paramètres hémorhéologiques.

NC(=O)CN1CCCC1=O [piracétam, 2-oxo-1-pyrrolidineacétamide]
temps de claudication et douleurs ([1]; 12 g piracétam added to 500 ml of 10% HES 200): nette diminution | distance moyenne de marche sans douleur ([1]; 12 g piracétam added to 500 ml of 10% HES 200, versus the same without piracétam): augmente de manière trés significative | fluidité du sang [2]: la meilleure
